# Test system: Pseudomonas aeruginosa
# Assay: Antimicrobial efficacy in inoculated pulp slurry (24 hr incubation, plated in nutrient agar, cfu/ml counted)
# Assay type: cell-based
# Protocol: A concentrated solution of active biocidal composition was prepared by mixing 44% (w/v) of aqueous ammonium persulfate with 40% (w/v) aqueous sodium bromide in equal volume. The final mixture contains 22% ammonium persulfate and 20% NaBr at pH 2.2. The molar ratio of the components was 1:2 for (NH4)2S2O8:NaBr. Four hours after mixing, the concentrated solution was diluted with water to contain 5% ammonium persulfate. This diluted solution (5%) was then added to 50 ml pulp slurry to give a biocidal concentration of 10 ppm (as ammonium persulfate) in pulp slurry. The pulp slurry was then inoculated with 3×10^6 cells/ml of Pseudomonas aeruginosa, incubated at room temperature for 24 hr, plated in nutrient agar. The colony forming units per milliliter (cfu/ml) was counted and compared with each individual component acting alone.
# The pulp slurry contains white bleached dry pulp at 5 g/L; cationic starch at 10 bl/ton dry pulp; CaCO3 at 300 bl/ton dry pulp; ASA size at 3-4 lb/ton dry pulp; retention aids at 0.5-1.0 bl/ton dry pulp; defoamer at 250 g/ton dry pulp. The pulp slurry has a consistency of about 0.5 to 0.7%. The final pH of the pulp substrate after autoclave is about 8.0. […] Neither component acting alone provides significant antimicrobial efficacy.
# The antimicrobial efficacy of the mixture containing 22% (w/v) aqueous ammonium persulfate and 20% (w/v) aqueous NaBr was tested at different times after mixing, aging times. The mixture preparation, at pH 2.2, and the test system are the same as that described in Example 1. At each time, a portion of the mixture was taken and diluted to 5% (as ammonium persulfate). The diluted solution was then added to pulp slurry to give a final concentration of 5, 10, 20, and 40 ppm (as ammonium persulfate) in pulp slurry. […] At only 5 ppm level, it achieved 2.5 logs reduction, which represents greater than 99% kill. […] It requires about 4 hr to provide significant activity. At about 8 hr after mixing, the mixed solution reached the maximum activity. The biocidal efficacy of the mixture was maintained or stabilized for at least 7 days.
# Three mixtures were generated. Mixture #1 was prepared by mixing 22% (NH4)2S2O8 with 20% NaBr in equal volume. The final concentrations in mixture #1 were 11% (NH4)2S2O8 and 10% NaBr. Mixture #2 was made by mixing 33% (NH4)2S2O8 with 30% NaBr in equal volume. The final concentrations in Mixture #2 were 16.5% (NH4)2S2O8 and 15% NaBr. Mixture #3 was prepared by mixing 44% (NH4)2S2O8 with 40% NaBr in equal volume. In the final solution, Mixture #3 contains 22% (NH4)2S2O8 and 20% NaBr. All three mixtures, having a pH 2.2, were tested at a dosage of 20 ppm, and at 1, 2, 4, and 8 hr after mixing for their antimicrobial activity in the pulp slurry described in Example 1. […]
# [1] = 100 ppm as pure compound in pulp slurry
# [2] = 1000 ppm as pure compound in pulp slurry
SMILES,CFU/ml [1],Log Reduction [1],CFU/ml [2],Log Reduction [2]
"N.N.O=S(=O)(O)OOS(=O)(=O)O [(NH4)2S2O8, ammonium persulfate]",4.5 × 10^5 CFU/ml,0.97,–,–
"[Br-].[Na+] [NaBr, sodium bromide]",–,–,4.2 × 10^6 CFU/ml,0.00
